In brackets after ≈: the same amount, converted by molar mass. Bridge positions count the residues as written; N and C are the ends. Peptide text beside a SMILES is read from it.
Experiments:
[1] = test system: C. albicans SC5314; assay: MIC/MFC, broth microdilution (modified CLSI M27-A2); assay type: cell-based; conditions: Candida albicans
Experimental: (§1) C. albicans strains were tested against RTD-1, fluconazole, and caspofungin in microdilution broth in accordance with Clinical and Laboratory Standards Institute (CLSI) document M27-A2 with the exception that 25 mM MOPS was used in place of 165 mM MOPS, as described previously. Overnight cultures were harvested by centrifugation, washed twice with Ca^2+ and Mg^2+-free PBS, pH 7.2, and suspended in test medium (RPMI 1640 medium, 25 mM MOPS, 2 mM L-glutamine) at 10^4 CFU/ml[62]. Incubations were conducted in flat bottom, 96-well microtiter plates (Greiner bio-one, Monroe, NC) containing 0.2 ml test medium per well. Duplicate 0.1 ml aliquots of serial two-fold dilutions of peptides and antifungal drugs were dispensed into wells, each of which was inoculated with 0.1 ml of fungal cell suspension containing 1 × 10^3 CFU. Plates were incubated at 30 °C for 48 hours after which A600 was determined using a SpectraMax M5e plate reader.
(§2) Minimal fungicidal concentration (MFC) was determined by plating, on YPD plates, 10 µl from wells in MIC assay without cell growth and the first well with measurable turbidity as described[63]–[66] and corresponding aliquots from the no-agent controls. […] MFC is reported as the lowest concentration of peptide or antifungal drug that killed ≥99% of the input organisms.
(§3) MICs and MFCs of RTD-1 were also performed in the presence of 50% mouse serum. Serum was prepared from blood collected by cardiac puncture from BALB/c mice. After coagulation at room temperature, serum was collected by centrifugation (200 g for 10 min followed by 23,000 g for 15 min), and diluted with an equal volume of yeast inoculum in MIC test medium described above.

[2] = test system: C. albicans 53264; assay: as above; assay type: cell-based
Experimental: as §1, §2, §3

[3] = test system: C. albicans 43001; assay: as above; assay type: cell-based
Experimental: as §1, §2, §3

[4] = RTD-1 tolerability/toxicity in naive mice; assay type: in vivo, BALB/c mice
Experimental: RTD-1 tolerability/toxicity was evaluated by i.p. dosing of naÏve BALB/c mice with RTD-1 at 5 mg/kg RTD-1 daily for 7 days, 20 mg/kg every other day for 10 days, and once at 50 mg/kg.

SMILES | MIC ([1]; RPMI 1640, 25 mM MOPS, 2 mM L-glutamine, 1 × 10^3 CFU/well, 30 °C, 48 h, A600, complete inhibition of growth, duplicate) [µg/mL] | MFC ([1]; RPMI, plating of MIC wells on YPD, ≥99% killing of input inoculum) [µg/mL] | MIC ([2]; Candida albicans, 53264, RPMI 1640, 25 mM MOPS, 2 mM L-glutamine, 1 × 10^3 CFU/well, 30 °C, 48 h, A600, complete inhibition of growth, duplicate, read-out: MIC) [µg/mL] | MFC ([2]; Candida albicans, 53264, RPMI, plating of MIC wells on YPD, ≥99% killing of input inoculum) [µg/mL] | resistance relative to drug sensitive SC5314 ([2]; strain 53264 vs SC5314, RPMI) [fold] | MIC ([3]; Candida albicans, 43001, RPMI 1640, 25 mM MOPS, 2 mM L-glutamine, 1 × 10^3 CFU/well, 30 °C, 48 h, A600, complete inhibition of growth, duplicate, read-out: MIC) [µg/mL] | MFC ([3]; Candida albicans, 43001, RPMI, plating of MIC wells on YPD, ≥99% killing of input inoculum) [µg/mL] | resistance relative to drug sensitive SC5314 ([3]; strain 43001 vs SC5314, RPMI) [fold] | tolerability ([4]; i.p. 5 mg/kg daily for 7 days, 20 mg/kg every other day for 10 days, once 50 mg/kg, observation at least 14 days) | toxicity ([4]; summary statement (Results))
CC[C@H](C)C[C@H](C)CCCCCCCCC(=O)N[C@H]1C[C@@H](O)[C@@H](NCCN)NC(=O)[C@@H]2[C@@H](O)CCN2C(=O)[C@H]([C@H](O)CCN)NC(=O)[C@H]([C@H](O)[C@@H](O)c2ccc(O)cc2)NC(=O)[C@@H]2C[C@@H](O)CN2C(=O)[C@H]([C@@H](C)O)NC1=O [Caspo, caspofungin] | 0.06 (≈ 0.0549 µM) | 0.25 (≈ 0.229 µM) | > 8 | > 8 | > 133 | 2 (≈ 1.83 µM) | 2 (≈ 1.83 µM) | 33 |  | 
CC[C@H](C)[C@@H]1NC(=O)[C@@H]2CSSC[C@H](NC(=O)[C@H](CCCNC(=N)N)NC(=O)[C@@H]3CSSC[C@H](NC1=O)C(=O)N[C@@H]([C@@H](C)O)C(=O)N[C@@H](CCCNC(=N)N)C(=O)NCC(=O)N[C@@H](Cc1ccccc1)C(=O)N3)C(=O)N[C@@H](CC(C)C)C(=O)N[C@H]1CSSC[C@H](NC(=O)[C@H](C(C)C)NC(=O)CNC(=O)[C@H](CCCNC(=N)N)NC(=O)[C@H](CCCNC(=N)N)NC1=O)C(=O)N[C@@H](CCCNC(=N)N)C(=O)N2 [RTD-1, Rhesus theta (θ) defensin-1] (cyclo(GFCRCLCRRGVCRCICTR); disulfide 3-16, 5-14, 7-12 (inferred); ring closure inferred) |  |  |  |  |  |  |  |  | tolerated RTD-1 dosing at all levels | non-toxic
